According to ChEMBL document CHEMBL5356949, “Development of novel thiazolidine-2,4-dione derivatives as PPAR-γ agonists through design, synthesis, computational docking, MD simulation, and comprehensive in vitro and in vivo evaluation” (RSC Med Chem, 2023):
Active and inactive are the calls of the source. The calls are words filed in the database; no cut-off is given here.

Legend:
C2C12 [1] = test: Upregulation of PPAR-gamma expression in mouse C2C12 cells at 1 uM by ELISA analysis; format: functional, cell-based
Rattus norvegicus [2] = test: Hypolipidemic activity against dexamethasone-induced sc dosed Wistar rat model assessed as decrease in serum HDL-c level administered once daily for 11 days and fasted for 12 hrs at end of the experimental period; format: functional, organism-based; details: time 11.5 day
C2C12 [3] = test: Antidiabetic activity in mouse C2C12 cells assessed as increase in glucose uptake incubated for 30 mins; format: functional, cell-based
Rattus norvegicus [4] = test: Effect on serum AST level in dexamethasone-induced sc dosed Wistar rat model administered once daily for 11 days and fasted for 12 hrs at end of the experimental period by biochemical analysis; format: functional, organism-based; details: time 11.5 day
Rattus norvegicus [5] = test: (§1) Antidiabetic activity against dexamethasone-induced sc dosed Wistar rat diabetic model assessed as restoration of histopathological changes administered once daily for 11 days and fasted for 12 hrs at end of the experimental period by hematoxylin and eosin staining based microscopic analysis; format: functional, organism-based; details: time 11.5 day
Rattus norvegicus [6] = test: Hypolipidemic activity against dexamethasone-induced sc dosed Wistar rat model assessed as decrease in serum triglyceride level administered once daily for 11 days and fasted for 12 hrs at end of the experimental period; format: functional, organism-based; details: time 11.5 day
Rattus norvegicus [7] = test: Antidiabetic activity against dexamethasone-induced sc dosed Wistar rat model assessed as decrease in serum VLDL level administered once daily for 11 days and fasted for 12 hrs at end of the experimental period; format: functional, organism-based; details: time 11.5 day
Rattus norvegicus [8] = test: Effect on serum ALT level in dexamethasone-induced sc dosed Wistar rat model administered once daily for 11 days and fasted for 12 hrs at end of the experimental period by biochemical analysis; format: functional, organism-based; details: time 11.5 day
Rattus norvegicus [9] = test: Hypolipidemic activity against dexamethasone-induced sc dosed Wistar rat model assessed as decrease in serum LDL-c level administered once daily for 11 days and fasted for 12 hrs at end of the experimental period; format: functional, organism-based; details: time 11.0 day
C2C12 [10] = test: Cytotoxicity against mouse C2C12 cells assessed as reduction in cell viability at 100 to 200 uM incubated for 24 hrs by MTT assay; format: toxicity, cell-based; details: c2c12, 24 h, dose 100-200 µM
Rattus norvegicus [11] = test: Antidiabetic activity against dexamethasone-induced sc dosed Wistar rat model assessed as decrease in serum glucose level administered once daily for 11 days and fasted for 12 hrs at end of the experimental period; format: functional, organism-based; details: time 11.5 day
Rattus norvegicus [12] = test: Hypolipidemic activity against dexamethasone-induced sc dosed Wistar rat model assessed as decrease in serum TG level administered once daily for 11 days and fasted for 12 hrs at end of the experimental period; format: functional, organism-based; details: time 11.5 day
Rattus norvegicus [13] = test: Hypolipidemic activity against dexamethasone-induced Wistar rat model assessed as decrease in serum LDL-c level at 17.5 mg/kg, sc administered once daily for 11 days and fasted for 12 hrs at end of the experimental period; format: functional, organism-based; details: time 11.5 day
C2C12 [14] = test: Upregulation of PPAR-gamma expression in mouse C2C12 cells by ELISA analysis; format: functional, cell-based; details: dose 6.25-100 µM
Rattus norvegicus [15] = test: Antidiabetic activity against dexamethasone-induced Wistar rat model assessed as decrease in serum glucose level at 17.5 mg/kg, sc administered once daily for 11 days and fasted for 12 hrs at end of the experimental period; format: functional, organism-based; details: time 11.5 day
Rattus norvegicus [16] = test: Antidiabetic activity against dexamethasone-induced Wistar rat model assessed as decrease in serum VLDL level at 17.5 mg/kg, sc administered once daily for 11 days and fasted for 12 hrs at end of the experimental period; format: functional, organism-based; details: time 11.5 day
Rattus norvegicus [17] = test: Hypolipidemic activity against dexamethasone-induced Wistar rat model assessed as decrease in serum triglyceride level at 17.5 mg/kg, sc administered once daily for 11 days and fasted for 12 hrs at end of the experimental period; format: functional, organism-based; details: time 11.5 day
Rattus norvegicus [18] = test: Hypolipidemic activity against dexamethasone-induced Wistar rat model assessed as decrease in serum TG level at 17.5 mg/kg, sc administered once daily for 11 days and fasted for 12 hrs at end of the experimental period; format: functional, organism-based; details: time 11.5 day
Rattus norvegicus [19] = test: Hypolipidemic activity against dexamethasone-induced Wistar rat model assessed as decrease in serum HDL-c level at 17.5 mg/kg, sc administered once daily for 11 days and fasted for 12 hrs at end of the experimental period; format: functional, organism-based; details: time 11.5 day
Rattus norvegicus [20] = test: Effect on serum ALT level in dexamethasone-induced Wistar rat model at 17.5 mg/kg, sc administered once daily for 11 days and fasted for 12 hrs at end of the experimental period by biochemical analysis; format: functional, organism-based; details: time 11.5 day
Rattus norvegicus [21] = test: Effect on serum AST level in dexamethasone-induced Wistar rat model at 17.5 mg/kg, sc administered once daily for 11 days and fasted for 12 hrs at end of the experimental period by biochemical analysis; format: functional, organism-based; details: time 11.5 day
Rattus norvegicus [22] = test: as §1, with “dexamethasone-induced” for “dexamethasone-induced sc dosed”, “changes at 17.5 mg/kg, sc” for “changes”; format: functional, organism-based; details: time 11.5 day

Row | Compound | Activity (C2C12 [3]) | Activity (C2C12 [10]) | Activity (Rattus norvegicus [13]) | Activity (C2C12 [14]) | Activity (Rattus norvegicus [15]) | Activity (Rattus norvegicus [16]) | Activity (Rattus norvegicus [17]) | Activity (Rattus norvegicus [18]) | Activity (Rattus norvegicus [19]) | Activity (Rattus norvegicus [20]) | Activity (Rattus norvegicus [21]) | Activity (Rattus norvegicus [22]) | other results
1 | CCc1ccc(CCOc2ccc(CC3SC(=O)NC3=O)cc2)nc1 (stereo unspecified) |  |  |  |  |  |  |  |  |  |  |  |  | Activity (C2C12 [1]): Active
2 | Cc1c(Cl)cccc1NC(=O)CN1C(=O)S/C(=C\c2cccs2)C1=O | Active | Non-Toxic |  |  |  |  |  |  |  |  |  |  | Activity (Rattus norvegicus [2]): Active; Activity (Rattus norvegicus [4]): Active; Activity (Rattus norvegicus [5]): Active; Activity (Rattus norvegicus [6]): Active; Activity (Rattus norvegicus [7]): Active; Activity (Rattus norvegicus [8]): Active; Activity (Rattus norvegicus [9]): Active; Activity (Rattus norvegicus [11]): Active; Activity (Rattus norvegicus [12]): Active
3 | O=C(CN1C(=O)S/C(=C\c2cccs2)C1=O)Nc1cccc(C(F)(F)F)c1 | Active | Non-Toxic | Active | Dose-Dependent Effect | Active | Active | Active | Active | Active | Active | Active | Active | 
4 | O=C(CN1C(=O)S/C(=C\c2cccs2)C1=O)Nc1cc(Cl)c(Cl)cc1Cl | Active | Non-Toxic | Active | Dose-Dependent Effect | Active | Active | Active | Active | Active | Active | Active | Active | 
